The test system of the series is CCRIS mutagenicity, Ames/micronucleus/aberration tests. The series is described as follows: CCRIS mutagenicity studies.
[1] abbreviates: Test System: AMES SALMONELLA TYPHIMURIUM, Strain/Indicator: TA98, Metabolic Activation: NONE, Method: STANDARD PLATE.
Where [2] appears, read: Test System: AMES SALMONELLA TYPHIMURIUM, Strain/Indicator: TA98, Metabolic Activation: RAT, LIVER, S-9, AROCLOR 1254, Method: STANDARD PLATE.
[3] abbreviates: Test System: AMES SALMONELLA TYPHIMURIUM, Strain/Indicator: TA100, Metabolic Activation: NONE, Method: STANDARD PLATE.
[4] abbreviates: Test System: AMES SALMONELLA TYPHIMURIUM, Strain/Indicator: TA100, Metabolic Activation: RAT, LIVER, S-9, AROCLOR 1254, Method: STANDARD PLATE.
[5] abbreviates: Test System: AMES SALMONELLA TYPHIMURIUM, Strain/Indicator: TA1535, Metabolic Activation: NONE, Method: STANDARD PLATE.
The mark [6] stands for this setting: Test System: AMES SALMONELLA TYPHIMURIUM, Strain/Indicator: TA98, Metabolic Activation: NONE, Method: PREINCUBATION
Where [7] appears, read: Test System: AMES SALMONELLA TYPHIMURIUM, Strain/Indicator: TA100, Metabolic Activation: NONE, Method: PREINCUBATION

The source made the active and inactive calls. No rule for the calls is given here.

With `N#CSCSC#N`, the mutagenic call was “inactive; negative” (Test System: AMES SALMONELLA TYPHIMURIUM, Strain/Indicator: TA98, Metabolic Activation: HAMSTER, LIVER, S-9, AROCLOR 1254, Method: STANDARD PLATE); “inactive; negative” under setting [1]; “inactive; negative” under setting [2]; “inactive; negative” (Test System: AMES SALMONELLA TYPHIMURIUM, Strain/Indicator: TA100, Metabolic Activation: HAMSTER, LIVER, S-9, AROCLOR 1254, Method: STANDARD PLATE); “inactive; negative” under setting [3]; “inactive; negative” under setting [4]. Moreover, the mutagenic call is, setting by setting: (Test System: AMES SALMONELLA TYPHIMURIUM, Strain/Indicator: TA1535, Metabolic Activation: HAMSTER, LIVER, S-9, AROCLOR 1254, Method: STANDARD PLATE) “inactive; negative”; under setting [5], “inactive; negative”; (Test System: AMES SALMONELLA TYPHIMURIUM, Strain/Indicator: TA1535, Metabolic Activation: RAT, LIVER, S-9, AROCLOR 1254, Method: STANDARD PLATE) “inactive; negative”; (Test System: AMES SALMONELLA TYPHIMURIUM, Strain/Indicator: TA1537, Metabolic Activation: HAMSTER, LIVER, S-9, AROCLOR 1254, Method: STANDARD PLATE) “inactive; negative”; (Test System: AMES SALMONELLA TYPHIMURIUM, Strain/Indicator: TA1537, Metabolic Activation: NONE, Method: STANDARD PLATE) “inactive; negative”; (Test System: AMES SALMONELLA TYPHIMURIUM, Strain/Indicator: TA1537, Metabolic Activation: RAT, LIVER, S-9, AROCLOR 1254, Method: STANDARD PLATE) “inactive; negative”. The mutagenic call (Test System: MOUSE LYMPHOMA, Strain/Indicator: L5178Y (TK+/TK-), Metabolic Activation: RAT, LIVER, S-9, AROCLOR 1254, Method: SUSPENSION/PLATE) was “inactive; negative. reevaluation of results: negative” and the mutagenic call (Test System: Mouse lymphoma, Strain/Indicator: L5178Y (tk+/tk-), Metabolic Activation: None, Method: Suspension/plate) was “inactive; negative”.

In the case of `Cc1c2cccc(F)c2c(C)c2c1ccc1ccccc12`, the mutagenic call (Test System: CHINESE HAMSTER V-79, Strain/Indicator: V-79/OUABAIN, Metabolic Activation: CELL-MEDIATED, Method: STANDARD PLATE) is “active; positive”.

With `COC(C)(C)CC(C)=O`, the mutagenic call (Test System: AMES SALMONELLA TYPHIMURIUM, Strain/Indicator: TA98, Metabolic Activation: HAMSTER, LIVER, S-9, AROCLOR 1254 (10%), Method: PREINCUBATION) is “inactive; negative”; the mutagenic call under setting [6] is “inactive; negative”; the mutagenic call (Test System: AMES SALMONELLA TYPHIMURIUM, Strain/Indicator: TA98, Metabolic Activation: RAT, LIVER, S-9, AROCLOR 1254 (10%), Method: PREINCUBATION) was “inactive; negative”; the mutagenic call (Test System: AMES SALMONELLA TYPHIMURIUM, Strain/Indicator: TA100, Metabolic Activation: HAMSTER, LIVER, S-9, AROCLOR 1254 (10%), Method: PREINCUBATION) was “inactive; negative”; the mutagenic call under setting [7] was “inactive; negative”; the mutagenic call (Test System: AMES SALMONELLA TYPHIMURIUM, Strain/Indicator: TA100, Metabolic Activation: RAT, LIVER, S-9, AROCLOR 1254 (10%), Method: PREINCUBATION) was “inactive; negative”. Further, the mutagenic call is “inactive; negative” (Test System: AMES SALMONELLA TYPHIMURIUM, Strain/Indicator: TA1535, Metabolic Activation: HAMSTER, LIVER, S-9, AROCLOR 1254 (10%), Method: PREINCUBATION); “inactive; negative” (Test System: AMES SALMONELLA TYPHIMURIUM, Strain/Indicator: TA1535, Metabolic Activation: NONE, Method: PREINCUBATION); “inactive; negative” (Test System: AMES SALMONELLA TYPHIMURIUM, Strain/Indicator: TA1535, Metabolic Activation: RAT, LIVER, S-9, AROCLOR 1254 (10%), Method: PREINCUBATION); “inactive; negative” (Test System: AMES SALMONELLA TYPHIMURIUM, Strain/Indicator: TA1537, Metabolic Activation: HAMSTER, LIVER, S-9, AROCLOR 1254 (10%), Method: PREINCUBATION); “inactive; negative” (Test System: AMES SALMONELLA TYPHIMURIUM, Strain/Indicator: TA1537, Metabolic Activation: NONE, Method: PREINCUBATION); “inactive; negative” (Test System: AMES SALMONELLA TYPHIMURIUM, Strain/Indicator: TA1537, Metabolic Activation: RAT, LIVER, S-9, AROCLOR 1254 (10%), Method: PREINCUBATION).

Turning to `Cc1cc(-c2ccc(N=Nc3c(N)c(C)cc(S(=O)(=O)O)c3N)c(C)c2)ccc1N=Nc1ccc(O)c(C(=O)O)c1`, the mutagenic call (Test System: AMES SALMONELLA TYPHIMURIUM, Strain/Indicator: TA1538, Metabolic Activation: RAT, LIVER, S-9, AROCLOR 1254, Method: STANDARD PLATE) is “active; positive”.

In the case of `Cn1c(N)nc2c3nc(-c4ccccc4)c(-c4ccccc4)nc3ccc21`, under setting [2], the mutagenic call was “inactive; negative”.

For `CN(N=O)C(=O)N[C@@H](C=O)[C@@H](O)[C@H](O)[C@H](O)CO`, the mutagenic call reads like this: (End Point: IN VITRO CHROMOSOMAL ABERRATIONS, Test System: CHE CELLS, Metabolic Activation: NONE, Method: FISH (METAPHASE)) “active; positive (structural changes)”; (Test System: AMES SALMONELLA TYPHIMURIUM, Strain/Indicator: TA97, Metabolic Activation: NONE, Method: STANDARD PLATE) “active; positive”; (Test System: AMES SALMONELLA TYPHIMURIUM, Strain/Indicator: TA97, Metabolic Activation: RAT, LIVER, S-9, AROCLOR 1254, Method: STANDARD PLATE) “inactive; negative”; under setting [1], “inactive; negative”; under setting [2], “inactive; negative”; under setting [3], “active; positive”. In addition, the mutagenic call is “inactive; negative” under setting [4]; “active; positive” under setting [5]; “active; positive” (Test System: CHINESE HAMSTER OVARY, Strain/Indicator: CHO-9 (HPRT), Metabolic Activation: NONE); “active; positive” (Test System: CHINESE HAMSTER OVARY, Strain/Indicator: CHO-9/OUABAIN, Metabolic Activation: NONE); “active; positive” (Test System: CHINESE HAMSTER OVARY, Strain/Indicator: CHO-K1-BH4 (HGPRT), Metabolic Activation: NONE, Method: SUSPENSION/PLATE); “active; positive” (Test System: CHINESE HAMSTER OVARY, Strain/Indicator: EM-C11 (HPRT), Metabolic Activation: NONE). In addition, the mutagenic call was “active; positive” (Test System: CHINESE HAMSTER OVARY, Strain/Indicator: EM-C11/OUABAIN, Metabolic Activation: NONE); “active; positive” (Test System: CHINESE HAMSTER V-79, Strain/Indicator: V-79/6-THIOGUANINE, Metabolic Activation: NONE, Method: STANDARD PLATE); “active; positive” (Test System: CHINESE HAMSTER V-79, Strain/Indicator: V-79/8-AZAGUANINE, Metabolic Activation: NONE, Method: STANDARD PLATE); “active; positive” (Test System: E. COLI, Strain/Indicator: WP2 (HCR), Metabolic Activation: NONE, Method: STANDARD PLATE).

In the case of `CO[C@@]12[C@H](CO)C3=C(C(=O)C(C)=C(N)C3=O)N1C[C@@H]1N[C@@H]12`, the mutagenic call (Test System: CHINESE HAMSTER V-79, Strain/Indicator: V-79/6-THIOGUANINE, Metabolic Activation: NONE, Method: FLASK ASSAY) is “active; positive”.

Take `Fc1cc(F)c2ncccc2c1`: the mutagenic call (Test System: AMES SALMONELLA TYPHIMURIUM, Strain/Indicator: TA100, Metabolic Activation: RAT LIVER S-9, PHENOBARBITAL AND 5,6-BENZOFLAVONE, Method: PREINCUBATION) was “active; positive”.

Regarding `COc1cc(C)cc2c(O)c(-c3c(C)cc4c(O)ccc(O)c4c3OC)cc(O)c12`, the mutagenic call reads like this: under setting [6], “inactive; negative”; (Test System: AMES SALMONELLA TYPHIMURIUM, Strain/Indicator: TA98, Metabolic Activation: RAT, LIVER, S-9, AROCLOR 1254, Method: PREINCUBATION) “inactive; negative”; under setting [7], “inactive; negative”; (Test System: AMES SALMONELLA TYPHIMURIUM, Strain/Indicator: TA100, Metabolic Activation: RAT, LIVER, S-9, AROCLOR 1254, Method: PREINCUBATION) “inactive; negative”.

The record behind these values is PubChem BioAssay AID1259407 (Chemical Carcinogenesis Research Information System (CCRIS), 2018).
